The text below walks through data of paper PMC7046553, “Backbone Cyclization and Dimerization of LL-37-Derived Peptides Enhance Antimicrobial Activity and Proteolytic Stability” (Frontiers in Microbiology, 2020).

Series [1] has as its system Candida albicans ATCC 90028. The following applies: ATCC 90028, 5 h.
Series [2] deals with Escherichia coli ATCC 25922. The following applies: ATCC 25922, 5 h.
Series [3] in a line: Liposome leakage assay, bacterial liposomes. Details: species or system E. coli.
Procedure: Membrane disruption was assayed by liposome leakage. […] E. coli and Saccharomyces cerevisiae membrane lipids were reconstituted into large unilamellar vesicles, trapping a self-quenching fluorescent marker.
Polar lipid extract from E. coli, and S. cerevisiae (Avanti Polar Lipids, Alabaster, AL-US) were used, the latter supplemented with ergosterol (Sigma-Aldrich) at a 7:3 molar ratio. In brief, dry lipid films were deposited on round-bottom flask walls and re-suspended in Tris buffer containing of 100 mM 5(6)-carboxyfluorescein. Multilamellar structures and polydispersity were reduced by repeated extrusion through 100-nm polycarbonate membranes. Un-trapped carboxyfluorescein was removed by gel separation. Membrane permeability was measured by monitoring carboxyfluorescein efflux from the liposomes to the external low concentration environment, resulting in loss of self-quenching and an increased fluorescence signal. The leakage experiments were performed on a 96-well plate format. […] EC50-values are calculated from sigmoidal dose-response curves of leakage percentage as a function of the peptide concentration (log10).
The nature of series [4]: Liposome leakage assay, fungal liposomes. Details: species or system S. cerevisiae. The following applies: 50% leakage, 45 min incubation, 37°C; read-out: EC50 fung. (liposome leakage). Here is the method:
FIGURE 3 Peptide induced liposome leakage. Bacterial liposomes based on E. coli polar lipid extract (A,B), and fungal liposomes of S. cerevisiae polar lipid extract and ergosterol (7:3) (C), were monitored for fluorescent marker leakage over 45 min of incubation with peptides. (A) Compares membrane disrupting efficacy at the 45 min mark for the parent peptide, monomer, lysine substitutions and dimerization, (B) effects of linker length, monomer directionality and backbone cyclization, (C) effect on KR-12 directionality and dimerization on a fungal liposome system. […] Results are means from triplicate experiments with standard deviations.
The liposome production and the liposome leakage assay were performed similar to what has previously been described ([Strömstedt et al., 2016]). […] Membrane permeability was measured by monitoring carboxyfluorescein efflux from the liposomes to the external low concentration environment, resulting in loss of self-quenching and an increased fluorescence signal. […] The effect of each peptide concentration on liposome integrity was monitored for 45 min, at which point the leakage had largely subsided. […] EC50-values are calculated from sigmoidal dose-response curves of leakage percentage as a function of the peptide concentration (log10).

A further series deals with Human type A RBCs. As to the kind of experiment: Hemolysis assay. It counts as cell-based. Here is the method: Peptides were dissolved in water and serially diluted in PBS to give 20 μl test solutions in a 96-well U-bottomed microtiter plate (Nunc). Human type A RBCs (red blood cells) were washed with PBS and centrifuged at 1500 g for 60 s in a microcentrifuge several times until a clear supernatant was obtained. A 0.25% suspension of washed RBCs in PBS (100 μl) was added to the peptide solutions. The plate was incubated at 37°C for 1 h and centrifuged at 150 g for 5 min. Aliquots of 100 μl were transferred to a 96-well flat-bottomed microtiter plate (Falcon) and the absorbance was measured at 405 nm with an automatic Multiskan Ascent plate reader (Labsystems). The amount of hemolysis was calculated as the percentage of maximum lysis (1% Triton X-100 control) after adjusting for minimum lysis (PBS control). Synthetic melittin (Sigma) was used for comparison. The hemolytic dose necessary to lyse 50% of the RBCs (HD50) was calculated using the regression constant from the linear portion of the hemolytic titration curve (GraphPad Prism software).

For series [5], the system named is Escherichia coli ATCC 25922. Details: method as in Gunasekera et al., 2018. The following applies: ref Gunasekera et al., 2018; cited from earlier work.
Series [6] deals with Pseudomonas aeruginosa ATCC 27853. Set-up: method as in Gunasekera et al., 2018. The following applies: ref Gunasekera et al., 2018; cited from earlier work.
For series [7], the system named is Staphylococcus aureus ATCC 29213. Details: method as in Gunasekera et al., 2018. The following applies: ref Gunasekera et al., 2018; cited from earlier work.
The subject of series [8] is Candida albicans ATCC 90028. Set-up: method as in Gunasekera et al., 2018. The following applies: ref Gunasekera et al., 2018; cited from earlier work.
A further series relates to Escherichia coli. Set-up: method as in Wang, 2008. The following applies: ref Wang, 2008; cited from earlier work.
For series [9], the system named is human lymphoma cell line U-937 GTB. The settings on record: cited from earlier work.

Where no end group is shown, it is not given here.

As a reminder, the EC50 is the concentration that produces a half-maximal response. The IC50 is the concentration at which inhibition is half-maximal. KRIVQRIKDFLR [KR-12] came in with an MIC fung. in series [1] of 10 µM. Moreover, in series [2], the MIC bact. came out at 2.5 µM. In addition, the EC50 is roughly 25 µM in series [3] (50% leakage, 45 min incubation, 37°C, read-out: EC50 bact. (liposome leakage)) and 950 nM in series [4]. Further, in series [3] (E. coli liposomes), the “fold higher concentration than LL-37 required to reach 50% leakage” value is given as 38 fold. Also, in the series with Human type A RBCs, the “HC50 (hemolysis)” value is greater than 80 µM. The “MIC against Escherichia coli” value was 2.5 µM in [5] and 40 µM in the series with Escherichia coli. Besides, the “MIC against Pseudomonas aeruginosa” value in series [6] was 10 µM. The “MIC against Staphylococcus aureus” value in series [7] is 10 µM. Besides, the “MIC against Candida albicans” value in series [8] is 10 µM. For the same sequence, the “loss of cell viability” value in series [9] (at the maximum concentration of 80 μM, ref Gunasekera et al., 2018) is reported as 13%. Also, in series [9], the IC50 is greater than 80 µM.
